Patent US20060069132A1, “Azolecarboxamide herbicides” (priority 2004, published 2006)

Assays:
[1] = test system: barnyardgrass; test: Test A pre-/postemergence herbicide test; format: in vivo, Echinochloa crus-galli
Outline: (§1)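 Visual injury rating on a 0–100 scale (0 no effect, 100 complete control) versus untreated controls, about ten days after treatment in greenhouse. Pre: directed soil spray onto seeded sandy loam. Post: spray to runoff on plants 2–10 cm tall at one- to two-leaf stage.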

[2] = test system: large crabgrass; test: Test A pre-/postemergence herbicide test; format: in vivo, Digitaria sanguinalis
Outline: as §1

[3] = test system: giant foxtail; test: Test A pre-/postemergence herbicide test; format: in vivo, Setaria faberi
Outline: as §1

[4] = test system: morningglory; test: Test A pre-/postemergence herbicide test; format: in vivo, Ipomoea spp.
Outline: as §1

[5] = test system: redroot pigweed; test: Test A pre-/postemergence herbicide test; format: in vivo, Amaranthus retroflexus
Outline: as §1

[6] = test system: velvetleaf; test: Test A pre-/postemergence herbicide test; format: in vivo, Abutilon theophrasti
Outline: as §1

[7] = test system: barnyardgrass; test: Test B pre-/postemergence herbicide test; format: in vivo, Echinochloa crus-galli; details: for Plant response rating, Barnyardgrass: preemergence; for Barnyardgrass plant response rating: postemergence, visual rating, scale 0 (no effect) to 100 (complete control)
Outline: (§2)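 Visual rating, 0 (no effect) to 100 (complete control), versus untreated controls after 13–15 d in greenhouse. Pre- and postemergence applications (postemergence plants 2–18 cm, 1–4 leaves); flooded paddy arm at 2-leaf stage. Compounds in non-phytotoxic solvent plus surfactant.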

[8] = test system: Surinam grass; test: Test B pre-/postemergence herbicide test; format: in vivo, Urochloa decumbens; details: for Plant response rating, Surinam Grass: preemergence; for Surinam Grass plant response rating: postemergence, visual rating, scale 0 (no effect) to 100 (complete control)
Outline: (§3)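 Test chemicals in a non-phytotoxic solvent mixture with surfactant were applied preemergence to seeded species and postemergence to plants 2-18 cm tall (1- to 4-leaf stage); rice and barnyardgrass were also tested in a flooded paddy at the 2-leaf stage. Visual rating versus controls after 13-15 days in greenhouse, scale 0 (no effect) to 100 (complete control).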

[9] = test system: cocklebur; test: Test B pre-/postemergence herbicide test; format: in vivo, Xanthium strumarium; details: for Plant response rating, Cocklebur: preemergence; for Cocklebur plant response rating: postemergence, visual rating, scale 0 (no effect) to 100 (complete control)
Outline: as §2

[10] = test system: corn; test: Test B pre-/postemergence herbicide test; format: in vivo, Zea mays; details: for Plant response rating, Corn: preemergence; for Corn plant response rating: postemergence, visual rating, scale 0 (no effect) to 100 (complete control)
Outline: as §3

[11] = test system: large crabgrass; test: Test B pre-/postemergence herbicide test; format: in vivo, Digitaria sanguinalis; details: for Plant response rating, Crabgrass, Large: preemergence; for Crabgrass, Large plant response rating: postemergence, visual rating, scale 0 (no effect) to 100 (complete control)
Outline: as §3

[12] = test system: giant foxtail; test: Test B pre-/postemergence herbicide test; format: in vivo, Setaria faberi; details: for Plant response rating, Foxtail, Giant: preemergence; for Foxtail, Giant plant response rating: postemergence, visual rating, scale 0 (no effect) to 100 (complete control)
Outline: as §3

[13] = test system: lambsquarters; test: Test B pre-/postemergence herbicide test; format: in vivo, Chenopodium album; details: for Lambsquarters plant response rating: postemergence, visual rating, scale 0 (no effect) to 100 (complete control)
Outline: as §3

[14] = test system: morningglory; test: Test B pre-/postemergence herbicide test; format: in vivo, Ipomoea coccinea; details: for Plant response rating, Morningglory: preemergence; for Morningglory plant response rating: postemergence, visual rating, scale 0 (no effect) to 100 (complete control)
Outline: as §2

[15] = test system: pigweed; test: Test B pre-/postemergence herbicide test; format: in vivo, Amaranthus retroflexus; details: for Plant response rating, Pigweed: preemergence; for Pigweed plant response rating: postemergence, visual rating, scale 0 (no effect) to 100 (complete control)
Outline: as §3

[16] = test system: rice; test: Test B pre-/postemergence herbicide test; format: in vivo, Oryza sativa; details: preemergence
Outline: as §3

[17] = test system: velvetleaf; test: Test B pre-/postemergence herbicide test; format: in vivo, Abutilon theophrasti; details: for Plant response rating, Velvetleaf: preemergence; for Velvetleaf plant response rating: postemergence, visual rating, scale 0 (no effect) to 100 (complete control)
Outline: as §3

[18] = test system: blackgrass; test: Test B postemergence herbicide test; format: in vivo, Alopecurus myosuroides; details: postemergence, visual rating, scale 0 (no effect) to 100 (complete control)
Outline: (§4)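 Visual ratings, 0 (no effect) to 100 (complete control), made versus controls after 13–15 d greenhouse. Paddy plants treated at 2-leaf stage; postemergence plants at 1- to 4-leaf stage, 2–18 cm tall.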

[19] = test system: wheat; test: Test B postemergence herbicide test; format: in vivo, Triticum aestivum; design: key to Wheat plant response rating: 0 = no effect, 100 = complete control; details: postemergence, 500 g ai/ha; visual rating, scale 0 (no effect) to 100 (complete control)
Outline: (§5)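 Plants grow to 1- to 4-leaf stage (2–18 cm) for postemergence spraying, or to 2-leaf stage for the paddy test. Formulated compound is applied. Greenhouse holding lasts 13–15 days. Response is scored visually relative to controls, 0 no effect to 100 complete control; a dash means no result.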

[20] = test system: wild oat; test: Test B postemergence herbicide test; format: in vivo, Avena fatua; details: postemergence, visual rating, scale 0 (no effect) to 100 (complete control)
Outline: as §5

[21] = test system: rice; test: Test B flooded paddy test; format: in vivo, Oryza sativa; details: 1000 g ai/ha, visual rating, scale 0 to 100 (0 no effect, 100 complete control), 13 to 15 days
Outline: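 Paddy species grown to the 2-leaf stage under flooding; blackgrass sprayed postemergence at 2–18 cm (1- to 4-leaf stage). Plants kept in a greenhouse for 13 to 15 days, then visually rated against controls on 0 (no effect) to 100 (complete control).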

[22] = test system: small flower umbrella sedge; test: Test B flooded paddy test; format: in vivo, Cyperus difformis; details: 1000 g ai/ha, visual rating, scale 0 to 100 (0 no effect, 100 complete control), 13 to 15 days
Outline: as §4

[23] = test system: ducksalad; test: Test B flooded paddy test; format: in vivo, Heteranthera limosa; details: 1000 g ai/ha, visual rating, scale 0 to 100 (0 no effect, 100 complete control), 13 to 15 days
Outline: as §4

[24] = test system: barnyardgrass; test: Test B flooded paddy test; format: in vivo, Echinochloa crus-galli; details: 1000 g ai/ha, visual rating, scale 0 to 100 (0 no effect, 100 complete control), 13 to 15 days
Outline: as §4

[25] = Postemergence, 500 g ai/ha, 0 to 100 scale, 0 no effect, 100 complete control
[26] = Postemergence, 2000 g ai/ha, 0 to 100 scale, 0 no effect, 100 complete control
[27] = Preemergence, 500 g ai/ha, visual rating, 0 to 100 scale (0 no effect, 100 complete control)
[28] = Preemergence, 2000 g ai/ha, visual rating, 0 to 100 scale (0 no effect, 100 complete control)
[29] = preemergence, 500 g ai/ha, visual injury, 0 to 100 scale (0 no effect, 100 complete control)
[30] = 500 g ai/ha, visual rating 0-100, 0 no effect, 100 complete control
[31] = 125 g ai/ha, 0 to 100 scale, 0 is no effect, 100 is complete control

CCn1nc(C(C)(C)C)cc1C(=O)Nc1cc(C(=O)OC)cc(C)n1 [Compound 148]
25: Plant response rating, Barnyardgrass [1, 26] | Pigweed plant response rating [5, 28]
30: Wheat plant response rating [19]
5: Crabgrass, Large plant response rating [2, 25] | Morningglory plant response rating [4, 28]
10: Plant response rating, Crabgrass, Large [2, 26] | Foxtail, Giant plant response rating [3, 28] | Plant response rating, Morningglory [4, 26] | Velvetleaf plant response rating [6, 28] | Plant response rating, Barnyardgrass [7, 30] | Surinam Grass plant response rating ([8]; 125 g ai/ha) | Surinam Grass plant response rating ([8]; 500 g ai/ha) | Corn plant response rating ([10]; 125 g ai/ha) | Corn plant response rating ([10]; 500 g ai/ha) | Crabgrass, Large plant response rating ([11]; 125 g ai/ha) | Crabgrass, Large plant response rating ([11]; 500 g ai/ha) | Foxtail, Giant plant response rating ([12]; 125 g ai/ha) | Foxtail, Giant plant response rating ([12]; 500 g ai/ha) | Lambsquarters plant response rating ([13]; 125 g ai/ha) | Lambsquarters plant response rating ([13]; 500 g ai/ha) | Morningglory plant response rating ([14]; 125 g ai/ha) | Morningglory plant response rating ([14]; 500 g ai/ha) | Pigweed plant response rating ([15]; 125 g ai/ha) | Plant response rating, Rice [16, 30] | Velvetleaf plant response rating ([17]; 125 g ai/ha) | Velvetleaf plant response rating ([17]; 500 g ai/ha) | Oat, Wild plant response rating ([20]; 125 g ai/ha) | Oat, Wild plant response rating ([20]; 500 g ai/ha)
0: Barnyardgrass plant response rating [1, 27] | Crabgrass, Large plant response rating [2, 27] | Foxtail, Giant plant response rating [3, 27] | Morningglory plant response rating [4, 27] | Pigweed plant response rating [5, 25] | Pigweed plant response rating [5, 29] | Velvetleaf plant response rating [6, 29] | Barnyardgrass plant response rating ([7]; 125 g ai/ha) | Plant response rating, Barnyardgrass [7, 31] | Plant response rating, Surinam Grass [8, 30] | Plant response rating, Surinam Grass [8, 31] | Plant response rating, Cocklebur [9, 30] | Plant response rating, Cocklebur [9, 31] | Plant response rating, Corn [10, 30] | Plant response rating, Corn [10, 31] | Plant response rating, Crabgrass, Large [11, 30] | Plant response rating, Crabgrass, Large [11, 31] | Plant response rating, Foxtail, Giant [12, 31] | Plant response rating, Lambsquarters ([13]; preemergence, 125 g ai/ha, 0 to 100 scale, 0 is no effect, 100 is complete control) | Plant response rating, Morningglory [14, 30] | Plant response rating, Morningglory [14, 31] | Plant response rating, Pigweed [15, 30] | Plant response rating, Pigweed [15, 31] | Plant response rating, Rice [16, 31] | Plant response rating, Velvetleaf [17, 30] | Plant response rating, Velvetleaf [17, 31] | Blackgrass plant response rating ([18]; 125 g ai/ha) | Blackgrass plant response rating ([18]; 500 g ai/ha) | Rice plant response rating [21] | Ducksalad plant response rating [23]
15: Crabgrass, Large plant response rating [2, 28] | Foxtail, Giant plant response rating [3, 25] | Plant response rating, Foxtail, Giant [3, 26] | Morningglory plant response rating [4, 25] | Plant response rating, Pigweed [5, 26] | Plant response rating, Velvetleaf [6, 26]
70: Cocklebur plant response rating ([9]; 500 g ai/ha) | Sedge, Umbrella plant response rating [22]
20: Barnyardgrass plant response rating [1, 25] | Barnyardgrass plant response rating [1, 28] | Velvetleaf plant response rating [6, 25] | Barnyardgrass plant response rating ([7]; 500 g ai/ha) | Cocklebur plant response rating ([9]; 125 g ai/ha) | Plant response rating, Foxtail, Giant [12, 30] | Pigweed plant response rating ([15]; 500 g ai/ha) | Barnyardgrass plant response rating [24]
